According to patent US20040242572A1 (Boehringer Ingelheim International GmbH, priority 2002, published 2004):

Legend:
[1] = target: T1, hMCH-1R (Homo sapiens, UniProt Q99705); assay: MCH-1 receptor binding test (125I-MCH binding to membranes of hMCH-1R transfected CHO/Galpha16 cells); conditions: 100 pM 125I-MCH, membranes of CHO/Galpha16 cells with hMCH-1R
T1 construct: expressed in transfected cells; host or cells: CHO/Galpha16 cells, stably transfected; membrane preparation
Procedure: Membranes from CHO/Galpha16 cells stably transfected with human hMCH-1R are resuspended using a syringe (needle 0.6×25 mm) and diluted in test buffer (50 mM HEPES, 10 mM MgCl2, 2 mM EGTA, pH 7.00; 0.1% bovine serum albumin (protease-free), 0.021% bacitracin, 1 μg/ml aprotinin, 1 μg/ml leupeptin and 1 μM phosphoramidone) to a concentration of 5 to 15 μg/ml. […] After the incubation the reaction is filtered using a cell harvester through 0.5% PEI treated glass fibre filters (GF/B, Unifilter Packard). The membrane-bound radioactivity retained on the filter is then determined after the addition of scintillator substance (Packard Microscint 20) in a measuring device (TopCount of Packard).
The non-specific binding is defined as bound radioactivity in the presence of 1 micromolar MCH during the incubation period.
The analysis of the concentration binding curve is carried out on the assumption of one receptor binding site.

T1 sequence (Q99705 whole entry): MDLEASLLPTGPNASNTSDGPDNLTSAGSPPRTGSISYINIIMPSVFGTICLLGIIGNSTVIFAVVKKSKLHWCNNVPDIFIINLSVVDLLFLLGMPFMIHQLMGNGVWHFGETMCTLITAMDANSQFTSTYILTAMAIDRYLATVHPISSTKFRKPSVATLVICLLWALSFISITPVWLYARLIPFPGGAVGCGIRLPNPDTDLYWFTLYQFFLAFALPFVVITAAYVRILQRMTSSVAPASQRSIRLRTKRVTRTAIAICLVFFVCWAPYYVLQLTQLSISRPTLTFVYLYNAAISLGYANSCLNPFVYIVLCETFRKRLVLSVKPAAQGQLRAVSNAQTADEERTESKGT

| Structure (SMILES) | melting point [°C] | IC50 [1] [nM] |
| --- | --- | --- |
| O=c1c2ccc(-c3ccc(Cl)cc3)cc2ncn1CCc1ccc(CN2CCC(O)(c3ccccc3)CC2)cc1 | 204 to 205 | – |
| O=c1c2ccc(-c3ccc(Cl)cc3)cc2nnn1CCc1ccc(CN2CCC(O)(c3ccccc3)CC2)cc1 | 265 to 266 | – |
| Cc1ccc(-c2ccc3c(=O)n(CCc4ccc(CN5CCCC5)cc4)cnc3c2)cc1 [Example 1.2, 3-[2-(4-Pyrrolidin-1-ylmethyl-phenyl)-ethyl]-7-p-tolyl-3H-quinazolin-4-one] | 157 to 158 | – |
| O=c1c2ccc(-c3ccc(Cl)c(Cl)c3)cc2ncn1CCc1ccc(CN2CCCC2)cc1 [Example 1.5, 7-(3,4-dichloro-phenyl)-3-[2-(4-pyrrolidin-1-ylmethyl-phenyl)-ethyl]-3H-quinazolin-4-one] | 148 to 149 | – |
| CCc1ccc(-c2ccc3c(=O)n(CCc4ccc(CN5CCCC5)cc4)cnc3c2)cc1 [Example 1.8, 7-(4-Ethyl-phenyl)-3-[2-(4-pyrrolidin-1-ylmethyl-phenyl)-ethyl]-3H-quinazolin-4-one] | 165 to 166 | – |
| Cc1nc2cc(-c3ccc(Cl)cc3)ccc2c(=O)n1CCc1ccc(CN2CCCC2)cc1 [Example 1.11, 7-(4-chloro-phenyl)-2-methyl-3-[2-(4-pyrrolidin-1-ylmethyl-phenyl)-ethyl]-3H-quinazolin-4-one] | 160 to 163 | – |
| O=c1[nH]c2cc(-c3ccc(Cl)cc3)ccc2c(=O)n1CCc1ccc(CN2CCCC2)cc1 [Example 1.12, 7-(4-chloro-phenyl)-3-[2-(4-pyrrolidin-1-ylmethyl-phenyl)-ethyl]-1H-quinazolin-2,4-dione] | 274 to 276 | – |
| CN(C)Cc1ccc(CCn2cnc3cc(-c4ccc(Cl)cc4)ccc3c2=O)cc1 [Example 1.14, 7-(4-chloro-phenyl)-3-[2-(4-dimethylaminomethyl-phenyl)-ethyl]-3H-quinazolin-4-one] | 183 | 2.1 |
| O=c1c2ccc(-c3ccc(Cl)cc3)cc2ncn1CCc1ccc(CN2CCCCC2)cc1 [Example 1.15, 7-(4-chloro-phenyl)-3-[2-(4-piperidin-1-ylmethyl-phenyl)-ethyl]-3H-quinazolin-4-one] | 169 to 170 | – |
| O=c1c2ccc(-c3ccc(Cl)cc3)cc2nnn1Cc1ccc(CN2CCCC2)cc1 [Example 1.19, 7-(4-chloro-phenyl)-3-(4-pyrrolidin-1-ylmethyl-benzyl)-3H-benzo[d][1,2,3]triazin-4-one] | 147 to 148 | – |
| O=c1c2ccc(-c3ccc(Cl)cc3)cc2ncn1CCc1ccc(CN2CCC3(CCCCC3)CC2)cc1 [Example 1.25, 7-(4-chloro-phenyl)-3-{2-[4-(3-Aza-spiro[5.5]undec-3-ylmethyl)-phenyl]-ethyl}-3H-quinazolin-4-one] | 184 to 185 | – |
| O=c1c2ccc(-c3ccc(Cl)cc3)cc2ncn1CCc1ccc(CN2CCC(Oc3ccccn3)CC2)cc1 [Example 1.26, 7-(4-chloro-phenyl)-3-(2-{4-[4-(pyridin-2-yloxy)-piperidin-1-ylmethyl]-phenyl}-ethyl)-3H-quinazolin-4-one] | 154 to 158 | – |
| O=c1c2ccc(-c3ccc(Cl)cc3)cc2ncn1CCc1ccc(CN2CCC(Nc3ccccn3)CC2)cc1 [Example 1.27, 7-(4-chloro-phenyl)-3-(2-{4-[4-(pyridin-2-ylamino)-piperidin-1-ylmethyl]-phenyl}-ethyl)-3H-quinazolin-4-one] | 164 to 166 | – |
| O=c1c2ccc(-c3ccc(Cl)cc3)cc2nnn1CCc1ccc(CN2CCC(c3ccccc3)CC2)cc1 [Example 1.28, 7-(4-chloro-phenyl)-3-{2-[4-(4-phenyl-piperidin-1-ylmethyl)-phenyl]-ethyl}-3H-benzo[d][1,2,3]triazin-4-one] | 183 to 184 | – |
| O=c1c2ccc(-c3ccc(Cl)cc3)cc2nnn1CCc1ccc(CN2CCC3(CCCCC3)CC2)cc1 [Example 1.30, 7-(4-chloro-phenyl)-3-{2-[4-(3-aza-spiro[5.5]undec-3-ylmethyl)-phenyl]-ethyl}-3H-benzo[d][1,2,3]triazin-4-one] | 165 to 166 | – |
| CCN(CC)Cc1ccc(CCNC(=O)c2ccc(-c3ccc(OC)cc3)cc2)cc1 [Example 2.4, 4′-methoxy-biphenyl-4-carboxylic acid-[2-(4-diethylaminomethyl-phenyl)-ethyl]-amide] | – | 3.5 |
| CN1CCN(c2ccc(CCNC(=O)c3ccc(-c4ccc(Cl)cc4)cc3)cn2)CC1 [Example 2.50, 4′-chloro-biphenyl-4-carboxylic acid-{2-[6-(4-methyl-piperazin-1-yl)-pyridin-3-yl]-ethyl}-amide] | 211 to 213 | – |
| CN1CCN(C(=O)c2ccc(CCNC(=O)c3ccc(-c4ccc(Cl)cc4)cc3)cc2)CC1 [Example 2.51, 4′-chloro-biphenyl-4-carboxylic acid-{2-[4-(4-methyl-piperazine-1-carbonyl)-phenyl]-ethyl}-amide] | 217 to 218 | – |

Next, values leading:

| melting point [°C] | IC50 [1] [nM] | Structure (SMILES) |
| --- | --- | --- |
| 178 to 179 | – | O=c1c2ccc(-c3ccc(Cl)cc3)cc2ncn1CCc1ccc(CN2CCCC2)cc1 [Example 1.1, 7-(4-chloro-phenyl)-3-[2-(4-pyrrolidin-1-ylmethyl-phenyl)-ethyl]-3H-quinazolin-4-one] |
| 179 to 181 | – | O=c1c2ccc(-c3ccc(C(F)(F)F)cc3)cc2ncn1CCc1ccc(CN2CCCC2)cc1 [Example 1.3, 3-[2-(4-pyrrolidin-1-ylmethyl-phenyl)-ethyl]-7-(4-trifluormethyl-phenyl)-3H-quinazolin-4-one] |
| 143 to 144 | – | COc1ccc(-c2ccc3c(=O)n(CCc4ccc(CN5CCCC5)cc4)cnc3c2)cc1 [Example 1.4, 7-(4-Methoxy-phenyl)-3-[2-(4-pyrrolidin-1-ylmethyl-phenyl)-ethyl]-3H-quinazolin-4-one] |
| 160 to 161 | – | O=c1c2ccc(-c3ccc(F)cc3)cc2ncn1CCc1ccc(CN2CCCC2)cc1 [Example 1.7, 7-(4-fluoro-phenyl)-3-[2-(4-pyrrolidin-1-ylmethyl-phenyl)-ethyl]-3H-quinazolin-4-one] |
| 133 to 135 | – | COC[C@@H]1CCCN1Cc1ccc(CCn2cnc3cc(-c4ccc(Cl)cc4)ccc3c2=O)cc1 [Example 1.13, 7-(4-chloro-phenyl)-3-{2-[4-((S)-2-methoxymethyl-pyrrolidin-1-ylmethyl)-phenyl]-ethyl}-3H-quinazolin-4-one] |
| 169 to 170 | – | O=c1c2ccc(-c3ccc(Cl)cc3)cc2ncn1CCc1ccc(CN2CCOCC2)cc1 [Example 1.16, 7-(4-chloro-phenyl)-3-[2-(4-morpholin-4-ylmethyl-phenyl)-ethyl]-3H-quinazolin-4-one] |
| 263 to 264 | – | CN1CCN(c2ccc(CCn3cnc4cc(-c5ccc(Cl)cc5)ccc4c3=O)cn2)CC1 [Example 1.17, 7-(4-chloro-phenyl)-3-{2-[6-(4-methyl-piperazin-1-yl)-pyridin-3-yl]-ethyl}-3H-quinazolin-4-one] |
| 151 to 152 | – | O=c1c2ccc(-c3ccc(Cl)cc3)cc2nnn1CCc1ccc(CN2CCCC2)cc1 [Example 1.18, 7-(4-chloro-phenyl)-3-[2-(4-pyrrolidin-1-ylmethyl-phenyl)-ethyl]-3H-benzo[d][1,2,3]triazin-4-one] |
| 178 to 179 | – | O=c1c2ccc(-c3ccc(Cl)cc3)cc2ncn1CCc1ccc(CN2CCC(c3ccccc3)CC2)cc1 [Example 1.21, 7-(4-chloro-phenyl)-3-{2-[4-(4-phenyl-piperidin-1-ylmethyl)-phenyl]-ethyl}-3H-quinazolin-4-one] |
| 199 to 200 | – | O=c1c2ccc(-c3ccc(Cl)cc3)cc2ncn1CCc1ccc(CN2CCN(c3ccccc3)CC2)cc1 [Example 1.22, 7-(4-chloro-phenyl)-3-{2-[4-(4-phenyl-piperazin-1-ylmethyl)-phenyl]-ethyl}-3H-quinazolin-4-one] |
| 166 to 167 | – | O=c1c2ccc(-c3ccc(Cl)cc3)cc2ncn1CCc1ccc(CN2CC=C(c3ccccc3)CC2)cc1 [Example 1.24, 7-(4-chloro-phenyl)-3-{2-[4-(4-phenyl-3.6-dihydro-2H-piperidin-1-ylmethyl)-phenyl]-ethyl}-3H-quinazolin-4-one] |
| 136 to 137 | – | O=c1c2ccc(-c3ccc(Cl)cc3)cc2ccn1CCc1ccc(CN2CCCC2)cc1 [Example 1.31, 6-(4-chloro-phenyl)-2-[2-(4-pyrrolidin-1-ylmethyl-phenyl)-ethyl]-2H-isoquinolin-1-one] |
| – | 30.5 | Cc1ccc(C2CCN(C(=O)NCCc3ccc(CN4CCCC4)cc3)CC2)cc1 [Example 2.12, 4-methylphenyl-piperidine-1-carboxylic acid-[2-(4-pyrrolidin-1-ylmethyl-phenyl)-ethyl]-amide] |
